Laboratory results: ChEMBL document CHEMBL1201862, “PubChem BioAssay data set” (2004)
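Assay format: 96-well plates, 48-hour exposure. Abbreviation: GI50, concentration required for 50% inhibition of growth.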 The source made the active and inactive calls. Rule as the data show it: active = GI50 up to about 1.1 µM and inactive = higher.

Columns and labels:
Assay in all cases: NCI anticancer screen, dose series, 48 h
HCT-15 = tested on: HCT-15
NCI-H23 = tested on: NCI-H23
OVCAR-3 = tested on: OVCAR-3
SNB-19 = tested on: SNB-19
SK-MEL-28 = tested on: SK-MEL-28
UACC-62 = tested on: UACC-62
NCI-H522 = tested on: NCI-H522
HL-60 = tested on: HL-60
OVCAR-4 = tested on: OVCAR-4
HOP-62 = tested on: HOP-62
LOX IMVI = tested on: LOX IMVI
UO-31 = tested on: UO-31
U-251 = tested on: U-251
IGROV-1 = tested on: IGROV-1
SR = tested on: SR
ACHN = tested on: ACHN
SF-539 = tested on: SF-539
SF-295 = tested on: SF-295
HCC 2998 = tested on: HCC 2998
SF-268 = tested on: SF-268

Measured: GI50

N#CC1=C(N)N(c2ccccc2)C(c2ccco2)C1(C#N)C#N (stereo unspecified)
inactive: NCI-H23 19.9 µM | OVCAR-3 19 µM | SNB-19 26.9 µM | SK-MEL-28 17.9 µM | UACC-62 23.2 µM | NCI-H522 16.7 µM | HL-60 17.5 µM | OVCAR-4 21.3 µM | HOP-62 21.8 µM | LOX IMVI 16.7 µM | UO-31 18.7 µM | U-251 21.8 µM | IGROV-1 19.2 µM | SR 20.5 µM | ACHN 16.7 µM | SF-539 19.3 µM | SF-295 28.4 µM | HCC 2998 16.4 µM | SF-268 34.7 µM
18.3 µM: HCT-15

N#CCCOCN(CO)c1nc(N(CO)COCCC#N)nc(N(CO)COCCC#N)n1
18.2 µM: HCT-15
inactive: NCI-H23 31.2 µM | OVCAR-3 25.7 µM | SNB-19 53.6 µM | SK-MEL-28 20.7 µM | NCI-H522 22.3 µM | HL-60 17.7 µM | OVCAR-4 26.9 µM | HOP-62 > 100 µM | LOX IMVI 31.8 µM | UO-31 21.7 µM | U-251 > 100 µM | IGROV-1 > 100 µM | SR 17.3 µM | ACHN 28.6 µM | SF-539 2.5 µM | SF-295 21.7 µM | SF-268 23.1 µM

COc1cc(Cc2ccc3c(c2C#N)N(C)c2ccccc2S3)cc(OC)c1OC
11 µM: HCT-15
inactive: NCI-H23 4.14 µM | OVCAR-3 18.7 µM | SNB-19 53.5 µM | SK-MEL-28 > 100 µM | NCI-H522 34.7 µM | HL-60 13.7 µM | OVCAR-4 > 100 µM | HOP-62 59.7 µM | LOX IMVI 8.15 µM | UO-31 30.9 µM | U-251 27.2 µM | IGROV-1 > 100 µM | SR 6.14 µM | ACHN 41.4 µM | SF-539 17.8 µM | SF-295 7.53 µM | SF-268 > 100 µM

COc1ccc(-c2nnc(-c3ccncc3)o2)cc1
> 100 µM: HCT-15
inactive: NCI-H23 > 100 µM | OVCAR-3 > 100 µM | SNB-19 78.7 µM | SK-MEL-28 > 100 µM | UACC-62 > 100 µM | NCI-H522 > 100 µM | HL-60 > 100 µM | OVCAR-4 > 100 µM | HOP-62 > 100 µM | LOX IMVI > 100 µM | UO-31 > 100 µM | U-251 > 100 µM | IGROV-1 > 100 µM | SR > 100 µM | ACHN > 100 µM | SF-539 > 100 µM | SF-295 > 100 µM | SF-268 > 100 µM

CS(=O)(=O)C(C#N)c1nc2ccccc2nc1Cl (stereo unspecified)
inactive: NCI-H23 > 100 µM | OVCAR-3 > 72.1 µM | SNB-19 > 100 µM | SK-MEL-28 > 100 µM | UACC-62 > 100 µM | NCI-H522 > 53.7 µM | HL-60 > 100 µM | OVCAR-4 > 73.5 µM | HOP-62 > 100 µM | LOX IMVI > 100 µM | UO-31 > 100 µM | U-251 > 100 µM | IGROV-1 > 66.5 µM | SR > 100 µM | ACHN > 100 µM | SF-539 > 28.5 µM | SF-295 > 100 µM | HCC 2998 > 32.2 µM | SF-268 > 74 µM
> 35.2 µM: HCT-15

CC(=C/c1ccccc1)/C=C1/NC(=S)N(/C=C2\C(=O)Oc3ccccc3C2=O)C1=O
inactive: NCI-H23 41.6 µM | OVCAR-3 38.3 µM | SNB-19 65.6 µM | SK-MEL-28 52.1 µM | NCI-H522 22.7 µM | HL-60 25.8 µM | OVCAR-4 34.9 µM | HOP-62 83.2 µM | LOX IMVI 53.5 µM | U-251 41.3 µM | SR 38.1 µM | ACHN 46 µM | SF-539 96.6 µM | SF-295 > 100 µM | HCC 2998 58.1 µM | SF-268 53.6 µM
45.7 µM: HCT-15

COc1cc([N+](=O)[O-])ccc1NC(=O)c1cccc([N+](=O)[O-])c1O
18.1 µM: HCT-15
inactive: NCI-H23 20.4 µM | OVCAR-3 29.4 µM | SNB-19 41.5 µM | SK-MEL-28 21.6 µM | UACC-62 9.2 µM | NCI-H522 11.6 µM | HL-60 19.9 µM | OVCAR-4 23.4 µM | HOP-62 36.6 µM | LOX IMVI 22.2 µM | UO-31 16.2 µM | U-251 40.1 µM | IGROV-1 14.1 µM | SR 17.8 µM | ACHN 12.6 µM | SF-539 23.1 µM | SF-295 23.4 µM | HCC 2998 19 µM | SF-268 32.5 µM

COc1ccc(C2ON(c3ccccn3)CC=C2C)cc1 (stereo unspecified)
> 100 µM: HCT-15
inactive: NCI-H23 78.3 µM | OVCAR-3 > 100 µM | SNB-19 > 100 µM | SK-MEL-28 > 100 µM | UACC-62 > 100 µM | NCI-H522 47.4 µM | HL-60 > 100 µM | OVCAR-4 > 100 µM | HOP-62 > 100 µM | LOX IMVI > 100 µM | UO-31 34.5 µM | U-251 > 100 µM | IGROV-1 > 100 µM | SR 58.9 µM | ACHN > 100 µM | SF-539 > 100 µM | SF-295 > 100 µM | HCC 2998 > 100 µM | SF-268 > 100 µM

Cc1cc(NS(=O)(=O)c2ccc(NC(=O)c3cccc4c(Nc5ccc(S(N)(=O)=O)cc5)c5ccccc5nc34)cc2)no1
inactive: NCI-H23 > 100 µM | OVCAR-3 76.2 µM | SNB-19 97.3 µM | SK-MEL-28 > 100 µM | UACC-62 > 100 µM | NCI-H522 41.6 µM | HL-60 > 100 µM | OVCAR-4 > 100 µM | HOP-62 > 100 µM | LOX IMVI 70.3 µM | UO-31 35.6 µM | U-251 87.7 µM | SR 80.9 µM | ACHN > 100 µM | SF-539 73.6 µM | HCC 2998 > 100 µM | SF-268 > 100 µM
> 100 µM: HCT-15

CCN(/N=C1\CC2C=CCN(C2)C(=O)Cc2c1[nH]c1ccccc21)S(=O)(=O)c1ccc(C)cc1 (stereo unspecified)
inactive: NCI-H23 87.5 µM | SNB-19 81.8 µM | UACC-62 38.8 µM | NCI-H522 36.7 µM | HL-60 73.1 µM | OVCAR-4 51.8 µM | LOX IMVI > 100 µM | UO-31 39.4 µM | U-251 > 100 µM | IGROV-1 68.4 µM | SR 64.4 µM | ACHN > 100 µM | SF-539 > 100 µM | SF-295 71.1 µM | HCC 2998 > 100 µM
85.9 µM: HCT-15

Cc1ccc(NC(=O)c2cccc([N+](=O)[O-])c2O)c(C)c1
inactive: NCI-H23 23 µM | OVCAR-3 5.7 µM | SNB-19 24.2 µM | SK-MEL-28 6.97 µM | UACC-62 4.03 µM | NCI-H522 7.06 µM | HL-60 17.2 µM | OVCAR-4 11.6 µM | HOP-62 33.3 µM | LOX IMVI 11.9 µM | UO-31 3.31 µM | U-251 24 µM | IGROV-1 9.84 µM | SR 22.3 µM | ACHN 16.8 µM | SF-539 14.5 µM | SF-295 20.1 µM | HCC 2998 40.4 µM | SF-268 34.8 µM

NC(=O)Oc1ccccc1 [CARBAMIC ACID PHENYL ESTER]
> 100 µM: HCT-15
inactive: NCI-H23 > 100 µM | OVCAR-3 > 100 µM | SNB-19 > 100 µM | SK-MEL-28 > 100 µM | NCI-H522 > 100 µM | HL-60 > 100 µM | OVCAR-4 > 100 µM | LOX IMVI > 100 µM | UO-31 > 100 µM | U-251 > 100 µM | SR > 100 µM | ACHN > 100 µM | SF-295 > 100 µM | HCC 2998 > 100 µM | SF-268 > 100 µM
